Key:
[1] = Test 1: Solution Stability Test; assay type: physicochemical; details: 37° C., one hour, about 50 μg/mL; for Compound's percent residue (%) pH 6.5: 20 mM phosphate buffer (pH 6.5); for Compound's percent residue (%) pH 1.2: hydrochloric acid solution (pH 1.2)
Description: Inventive Compounds (I) were tested for their stability in solutions simulating the gastric and small intestine's digestive fluids identified below.
The percent residues of Inventive Compounds (I) in a hydrochloric acid solution (pH 1.2) and 20 mM phosphate buffer (pH 6.5) were measured in accordance with the following test method.
A test compound was dissolved in a hydrochloric acid solution (pH 1.2) containing hydrochloric acid and sodium chloride or a 20 mM phosphate buffer (pH 6.5) containing disodium hydrogenphosphate, sodium dihydrogenphosphate and sodium chloride to prepare a solution with a concentration of about 50 μg/mL (near the solubility if undissolved). The solution was incubated at 37° C. for an hour and the compound's concentration before and after the incubation was quantified by high-performance liquid chromatography to calculate the percent residue of the compound.

[2] = Test 4: percent generation of Compound (IV) in human small intestine S9; assay type: in vitro ADME; details: 3 μM, 1 mg protein/mL, 37° C. x 1 hr
Description: A test to determine the percent generation of Compound (IV) in human intestine S9 was conducted for Inventive Compounds (I) in accordance with the following method.
Inventive Compounds were incubated (37° C.×1 hr) in a 0.1 M phosphate buffer (pH 7.4) together with a human intestine S9 fraction (Xenotech, LLC/CP710571/Lot, 710571) in the presence of Mg^2+ (5 mM), Ca^2+ (5 mM) and Zn^2+ (0.1 mM). The final concentrations of each Inventive Compound and the small intestine S9 protein were adjusted to 3 μM and 1 mg protein/mL, respectively. To the incubated reaction mixture, 3 volumes of DMSO was added, followed by stirring and centrifugation at 3000 rpm (4° C.×10 min). The resulting supernatant was subjected to analysis by a liquid chromatography-tandem mass spectrometry (LC-MS/MS) system. The lower quantitation limit was 0.3 μM for both Inventive Compounds (I) and Compound (IV).
The LC-MS/MS system used in the measurement was equipped with Waters XBridge Amide (3.5 μm, 50 mm×4.6 mm I.D.), Waters Atlantis T3 (3 μm, 50 mm×4.6 mm I.D.), or Shimadzu Shim-pack XR-ODS (2.2 μm, 30 mm×3.0 mm I.D.) as a separation column. The mobile phase was a 0.1% formic acid/acetonitrile solution or a 0.1% formic acid/methanol solution (flow rate: 0.7-1.3 mL/min) and the analyte was eluted in a linear gradient mode. MS/MS detection of Inventive Compounds (I) and Compound (IV) was performed using an API4000 or Triple quad 5500 system with TurbolonSpray interface (both being products of AB SCIEX) in either a positive or negative ion detection mode. The percent generation of Compound (IV) in human small intestine S9 is shown in the following Table 6 with respect to Inventive Compounds.

[3] = Test 2: generation of Compound (IV) in human hepatic microsomes; assay type: in vitro ADME; details: human hepatic microsome
Description: A test to determine the percent generation of Compound (IV) in human and monkey hepatic microsomes was conducted for Inventive Compounds (I) in accordance with the following method. As a control for comparison, an ethyl ester form of Compound (IV) (Reference Example 1) was used.
A test compound was incubated (37° C.×15 min) in a 0.250 M phosphate buffer (pH 7.4) containing 69 mM KCl, together with a human hepatic microsome (Ms) fraction (Xenotech/H630B/lot, 0810472) or a monkey Ms fraction (BD Biosciences/452413/lot, 94518) in the presence of a NADPH generation system (0.16 mM NADP^+, 2.4 mM MgCl2, 1.5 mM glucose-6-phosphate). The final concentrations of the test compound and hepatic Ms protein were adjusted to 3 μM and 1 mg protein/mL, respectively. To the incubated reaction mixture, 2 volumes of DMSO was added, followed by stirring and centrifugation at 3000 rpm (4° C.×10 min) The resulting supernatant was subjected to analysis by a liquid chromatography-tandem mass spectrometry (LC-MS/MS) system. The lower quantitation limit was 0.3 μM for both the test compound and Compound (IV).

[4] = system: phencyclidine-elicited head-weaving behavior; details: schizophrenia model; cited from earlier work
[5] = system: schizophrenia model rat; details: cited from earlier work
[6] = Test 5: plasma concentrations of Compound (IV) in monkey after oral administration; assay type: in vivo, cynomolgus monkeys
Description: A test to measure the plasma concentration of Compound (IV) upon oral administration of Compound (IV) and Inventive Compounds (I) was conducted in accordance with the following method.
Compound (IV) or Inventive Compounds (I) was orally administered to male cynomolgus monkeys (fed condition) at a dose of 4.92 μmol/kg (vehicle: 0.5% methyl cellulose (MC) solution; administered at a dose of 5 mL/kg).
Two and 4 hours after the oral administration, approximately 0.7 mL of blood was taken from the cephalic vein (anticoagulant: EDTA-2K). The plasma recovered by centrifugation (3000 rpm, 4° C.×10 min) was stored frozen at −80° C. until use for analysis. In the case of analysis, 50 μL of the plasma sample was thawed under cooling with ice and after adding 200 μL of a liquid acetonitrile/methanol mixture containing an internal standard substance, the resulting mixture was stirred and centrifuged (4° C.×10 min); the resulting supernatant was subjected to LC-MS/MS analysis. The lower quantitation limits of Inventive Compounds (I) and Compound (IV) were 1 ng/mL and 3 ng/mL, respectively.

[7] = molecular target: mGluR3 (Homo sapiens, UniProt Q14832); details: read-out: EC50 value for the agonistic activity for mGluR3; cited from earlier work
[8] = system: conditioned avoidance response; details: schizophrenia model; cited from earlier work

mGluR3, sequence (Q14832 23-879): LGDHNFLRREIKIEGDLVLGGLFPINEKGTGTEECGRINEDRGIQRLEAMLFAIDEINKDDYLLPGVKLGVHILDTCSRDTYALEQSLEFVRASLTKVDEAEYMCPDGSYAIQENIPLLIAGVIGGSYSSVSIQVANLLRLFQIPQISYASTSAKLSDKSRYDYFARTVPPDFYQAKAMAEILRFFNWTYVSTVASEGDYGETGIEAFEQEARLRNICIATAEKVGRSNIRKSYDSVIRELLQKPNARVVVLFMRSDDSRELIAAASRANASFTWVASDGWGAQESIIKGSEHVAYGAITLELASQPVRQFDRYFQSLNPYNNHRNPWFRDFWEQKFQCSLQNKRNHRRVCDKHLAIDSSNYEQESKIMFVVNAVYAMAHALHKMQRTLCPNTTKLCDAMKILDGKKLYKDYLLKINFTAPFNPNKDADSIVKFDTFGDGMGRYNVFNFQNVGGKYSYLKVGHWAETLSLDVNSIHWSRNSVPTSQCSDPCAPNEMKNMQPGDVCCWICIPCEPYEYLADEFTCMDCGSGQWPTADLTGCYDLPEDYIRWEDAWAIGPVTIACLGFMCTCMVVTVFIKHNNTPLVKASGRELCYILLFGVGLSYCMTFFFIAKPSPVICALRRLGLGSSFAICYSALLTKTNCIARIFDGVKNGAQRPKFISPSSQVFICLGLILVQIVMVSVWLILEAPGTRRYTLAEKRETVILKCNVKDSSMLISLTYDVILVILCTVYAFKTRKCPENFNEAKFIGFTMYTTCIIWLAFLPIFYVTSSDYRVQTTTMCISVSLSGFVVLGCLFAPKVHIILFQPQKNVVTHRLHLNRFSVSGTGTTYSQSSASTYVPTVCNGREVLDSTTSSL

## CC(C)C[C@H](N)C(=O)N[C@]1(C(=O)O)[C@H]2[C@@H](C[C@@H]1F)[C@@H]2C(=O)O.Cl [Ex. D-7, (1S,2S,3S,5R,6S)-2-((S)-2-amino-4-methylpentanamide)-3-fluorobicyclo[3.1.0]hexane-2,6-dicarboxylic acid hydrochloride]
[1]
  Compound's percent residue (%) pH 6.5: 102%
  Compound's percent residue (%) pH 1.2: 99%
[2]
  Percent generation (%) of Compound IV in human small intestine S9: 11.7%

## C[C@H](OC(=O)[C@H]1[C@@H]2C[C@H](F)[C@@](N)(C(=O)O)[C@@H]21)OC(=O)C12CC3CC(CC(C3)C1)C2.Cl
other
  melting point: 164 °C (dec.)

## C[C@H](N)C(=O)N[C@]1(C(=O)O)[C@H]2[C@@H](C[C@@H]1F)[C@@H]2C(=O)O.Cl [Ex. D-2, (1S,2S,3S,5R,6S)-2-((S)-2-aminopropanamide)-3-fluorobicyclo[3.1.0]hexane-2,6-dicarboxylic acid hydrochloride]
[1]
  Compound's percent residue (%) pH 6.5: 103%
  Compound's percent residue (%) pH 1.2: 100%
[2]
  Percent generation (%) of Compound IV in human small intestine S9: 17.8%

## CCC[C@H](N)C(=O)N[C@]1(C(=O)O)[C@H]2[C@@H](C[C@@H]1F)[C@@H]2C(=O)O.Cl [Ex. D-4, (1S,2S,3S,5R,6S)-2-((S)-2-amino-4-methylbutanamide)-3-fluorobicyclo[3.1.0]hexane-2,6-dicarboxylic acid hydrochloride]
[1]
  Compound's percent residue (%) pH 6.5: 100%
  Compound's percent residue (%) pH 1.2: 101%
[2]
  Percent generation (%) of Compound IV in human small intestine S9: <10%

## CC[C@H](C)[C@H](N)C(=O)N[C@]1(C(=O)O)[C@H]2[C@@H](C[C@@H]1F)[C@@H]2C(=O)O.Cl [Ex. D-6, (1S,2S,3S,5R,6S)-2-((2S,3S)-2-amino-3-methylpentanamide)-3-fluorobicyclo[3.1.0]hexane-2,6-dicarboxylic acid hydrochloride]
[1]
  Compound's percent residue (%) pH 6.5: 101%
  Compound's percent residue (%) pH 1.2: 101%
[2]
  Percent generation (%) of Compound IV in human small intestine S9: <10%

## CCOC(=O)[C@H]1[C@@H]2C[C@H](F)[C@@](N)(C(=O)O)[C@@H]21 [Ref. Ex. 1, (1S,2S,3S,5R,6S)-2-amino-6-(ethoxycarbonyl)-3-fluorobicyclo[3.1.0]hexane-2-carboxylic acid]
[3]
  test compound remaining unchanged: approximately 100%

## N[C@]1(C(=O)O)[C@H]2[C@@H](C[C@@H]1F)[C@@H]2C(=O)O [Compound IV, (1S,2S,3S,5R,6S)-2-amino-3-fluorobicyclo[3.1.0]hexane-2,6-dicarboxylic acid]
[4]
  effect on phencyclidine-elicited head-weaving behavior: has the effect of suppressing
[5]
  ED50 value, suppressing phencyclidine-elicited hyperactivity: 5.1 mg/kg
[6]; in monkeys
  oral absorbability: poor
[7]
  EC50: 45.4 nM
[8]
  effect on conditioned avoidance response: has the effect of suppressing

## CSCC[C@H](N)C(=O)N[C@]1(C(=O)O)[C@H]2[C@@H](C[C@@H]1F)[C@@H]2C(=O)O.Cl [Ex. D-1, (1S,2S,3S,5R,6S)-2-((S)-2-amino-4-(methylthio)butanamide)-3-fluorobicyclo[3.1.0]hexane-2,6-dicarboxylic acid hydrochloride]
[1]
  Compound's percent residue (%) pH 6.5: 102%
  Compound's percent residue (%) pH 1.2: 103%
[2]
  Percent generation (%) of Compound IV in human small intestine S9: 20.9%
[6]; oral 4.92 μmol/kg, male cynomolgus monkeys (fed), 2 hr
  Concentration (ng/mL) of Compound IV in monkey plasma, After 2 hr: 141 ng/mL
[6]; oral 4.92 μmol/kg, male cynomolgus monkeys (fed), 4 hr
  Concentration (ng/mL) of Compound IV in monkey plasma, After 4 hr: 128 ng/mL

## Cl.NCC(=O)N[C@]1(C(=O)O)[C@H]2[C@@H](C[C@@H]1F)[C@@H]2C(=O)O [Ex. D-3, (1S,2S,3S,5R,6S)-2-(2-aminoacetamide)-3-fluorobicyclo[3.1.0]hexane-2,6-dicarboxylic acid hydrochloride]
[1]
  Compound's percent residue (%) pH 6.5: 102%
  Compound's percent residue (%) pH 1.2: 100%
[2]
  Percent generation (%) of Compound IV in human small intestine S9: <10%

Source: patent US9428483B2, “Prodrug of fluorine-containing amino acid” (TAISHO PHARMACEUTICAL CO., LTD., priority 2012, dated 2016)
